The subject of assay [1] is dendritic spines of the CA1 pyramidal cells. Kind of assay: Golgi-Cox staining of dendritic spines, Aβ1-42 AD rat model. Format: in vivo, rats. Conditions: vs Aβ1-42 group. The method, then: Aβ1-42 (Sigma-Aldrich, St. Louis, MO, USA;) was dissolved in double-distilled water at the concentration of 5 μg/μl, and incubated at 37° C. for one week before surgery. The rats were randomly divided into four groups as Sham (n=8), Sham+AG-1601 (n=8), Aβ1-42 (n=8) and Aβ1-42+AG-1601 (n=8). The Alzheimer's disease rat models were established by intracerebroventricular (i.c.v.) injection of Aβ1-42 aggregates. The animals were anesthetized with intraperitoneal injection of pentobarbital sodium (50 mg/kg) and placed in a stereotaxic apparatus (Narishige, Japan). The head skin of the rat was opened and two small holes were drilled on both sides of skull following the coordinates: 0.8 mm posterior to bregma, +1.4 mm lateral to sagittal suture, 4.0 mm beneath the surface of brain. Aβ1-42 (2.0 μl per side) was injected bilaterally into the lateral ventricles through micro-syringe. The needle was taken out after 5 minutes of the injection to ensure the aggregates were infused completely. […]
Golgi-Cox staining method that performed according to the previously described protocol was used to determine the density of apical dendritic spines of the CA1 pyramidal cells in this study (Zhang et al., 2016). […] Six neurons in the CA1 region of hippocampus per animal were analyzed. The average dendritic spine density per 10 μm of dendritic length was calculated for each animal.

The subject of assay [2] is SIRT1 and p-CREB. Kind of assay: Western blot of SIRT1, CREB and p-CREB in hippocampus, Aβ1-42 AD rat model. The class given is in vivo, rats. Conditions: vs Aβ1-42 group. The method, then: Aβ1-42 (Sigma-Aldrich, St. Louis, MO, USA;) was dissolved in double-distilled water at the concentration of 5 μg/μl, and incubated at 37° C. for one week before surgery. The rats were randomly divided into four groups as Sham (n=8), Sham+AG-1601 (n=8), Aβ1-42 (n=8) and Aβ1-42+AG-1601 (n=8). The Alzheimer's disease rat models were established by intracerebroventricular (i.c.v.) injection of Aβ1-42 aggregates. The animals were anesthetized with intraperitoneal injection of pentobarbital sodium (50 mg/kg) and placed in a stereotaxic apparatus (Narishige, Japan). The head skin of the rat was opened and two small holes were drilled on both sides of skull following the coordinates: 0.8 mm posterior to bregma, +1.4 mm lateral to sagittal suture, 4.0 mm beneath the surface of brain. Aβ1-42 (2.0 μl per side) was injected bilaterally into the lateral ventricles through micro-syringe. The needle was taken out after 5 minutes of the injection to ensure the aggregates were infused completely. Rats in the Sham group underwent the same operational process, but same volumes of double-distilled water were injected instead of Aβ1-42. After surgery, all rats were injected with penicillin (100,000 U) in the hindquarter muscle to prevent infection. The animals of Sham+AG-1601 and Aβ1-42+AG-1601 groups were intravenous injection with AG-1601 (1 mg/kg), while the same volume vehicle was implemented for the other groups every day for 14 days after one week of the postoperative recovery.
Three rats of each group were randomly selected to be sacrificed and their hippocampal tissues were immediately removed at 0° C. and stored at minus 80° C. For subcellular fractionation, 100- to 200-mg weight rat hippocampal tissue was used. The procedure has been described (Yang et al., 2017). The tissues were homogenized for 30 s in 500 μl TEVP buffer containing 320 mM sucrose and the homogenate was obtained. The homogenate (H) was centrifuged at 900×g for 10 min at 4° C., and the supernatant (S1) was centrifuged for 20 min at 10000×g at 4° C. to obtain the cytosolic/light membrane fraction (S2) and the crude synaptosomal fraction pellet (P2). The pellet was resuspended in TEVP buffer containing 35.6 mM sucrose solution and then centrifuged at 25,000×g for 20 min at 4° C. The supernatant was stored at minus 80° C. and referred as the synaptic vesicular fraction (LS1). The pellet, synaptic plasma membranes (LP1), was resuspended in TEVP buffer containing 1% Triton X-100 and centrifuged at 330,000×g for 30 min at 4° C. The supernatant referred as Triton X-100-soluble fraction (TSF) was stored at minus 80° C. The final pellet, the Triton X-100-insoluble fraction (TIF), was homogenized in TEVP buffer containing 1% SDS.
The total homogenate (H) and synaptosomal fractions were analyzed. Equal amounts of 20 μg from each sample were separated via 10% or 13% SDS-PAGE gels and subsequently transferred onto PVDF membranes (Millipore, USA). […] After washing with TBST buffer, signals were visualized with the HRP substrate (Millipore, USA) and detected with a chemiluminescence kit (Tanon 5500, Tanon Science & Technology, China). The gray-scale value of protein band was quantified by NIH Image J program.
(Immunoblotting shows a protein as a band on a membrane.)

Assay [3] deals with SF295 xenograft tumor. Nature of the assay: SF295 GBM xenograft mice model. The class given is in vivo. Conditions: 150 μg/mice IP every other day, 28 days. The procedure: Female SHO mice (Crl:SHO-Prkdescid Hr/6-8 weeks) were purchased from Charles River. Human glioblastoma cell line SF295 cells were injected subcutaneously on the right flank of 8 week female SHO mice (3×10^6/per mice), tumor appears around one week (day 7) post inoculation. When the tumor size reaches the volume of 100 mm^3, total 12 mice were randomly divided to two groups (Treatment & Vehicle). 100 μl of 1.5 μg/μl of AG-1601 (total 150 μg/mice) was injected via IP to each mouse in the Treatment Group every other day for total 28 days; the same volume of H2O was injected to the mouse in the Vehicle Group. Tumor size measurement was evaluated using the digital calipers and tumor size was calculated using the following formula [mm^3=((L+W)/4)×((L+W)/4)×((L+W)/4)×4/3×3.14159], data are platted as relative mean tumor volume+/−standard error of the mean.

As to `C=CC1=C(C)c2cc3[nH]c(cc4nc(cc5[nH]c(cc1n2)c(C)c5C=C)C(C)=C4CCC(=O)O)c(CCC(=O)NCCCc1ccccc1)c3C` [AG-1601, 3-(2,8,13,18-tetramethyl-3-(3-oxo-3-((3-phenylpropyl)amino)propyl)-12,17-divinylporphyrin-7-yl)propanoic acid], the “density of dendritic spines in the CA1 region” value in assay [1] is recorded as “marked reversal of the dendritic spine loss”. Moreover, in assay [2], the SIRT1 protein level result is “the decline was prevented”, the “expression of CREB” value is reported as “rescued the reductions” and the p-CREB level entry was “significantly increased”. In assay [2] (listed as AG-1061), the SIRT1 protein level result is recorded as “this decline was prevented” and the p-CREB level result is listed as “significantly increased the expression of p-CREB protein”. Moreover, the “efficacy on SF295 xenograft tumor” value in assay [3] is listed as “shows efficacy”.

These data come from patent publication US12012415B2, “Compositions and methods for the diagnosis, treatment and prevention of neoplastic and neurological disorders” (AscentGene, Inc., priority 2018, dated 2024).
